Our source for the MIC values is ChEMBL document CHEMBL1148851, “Chemoenzymatic synthesis and in vitro studies on the hydrolysis of antimicrobial monoglycosyl diglycerides by pancreatic lipase” (2007).

Values after ≈ are worked out from the molar mass of the structure shown.

Holding throughout (format): functional
For assay [1], the system named is Staphylococcus aureus. Briefly: Antibacterial activity against Staphylococcus aureus ATCC 25923.
Assay [2] has as its system Staphylococcus aureus. Briefly: Antibacterial activity against Staphylococcus aureus ATCC 105487.
The subject of another assay is Enterococcus faecalis. As to the kind of experiment: Antibacterial activity against Enterococcus faecalis ATCC 29212.
The next assay deals with Bacillus subtilis. As to the kind of experiment: Antibacterial activity against Bacillus subtilis ATCC 6633. Particulars: Bacillus subtilis, ATCC 6633; read-out: MIC.
A further assay relates to Escherichia coli. Briefly: Antibacterial activity against Escherichia coli ATCC 25922.
For the next assay, the system named is Pseudomonas aeruginosa. Briefly: Antibacterial activity against Pseudomonas aeruginosa ATCC 27753.
Assay [3] concerns Staphylococcus aureus. As to the kind of experiment: Antibacterial activity against Staphylococcus aureus SA85 isolate.
The subject of assay [4] is Staphylococcus aureus. As to the kind of experiment: Antibacterial activity against Staphylococcus aureus SA52 isolate.
The test system of assay [5] is Staphylococcus aureus. Briefly: Antibacterial activity against Staphylococcus aureus SA87 isolate. Particulars: Staphylococcus aureus; read-out: MIC.
Assay [6] deals with Mycobacterium tuberculosis. Briefly: Antibacterial activity against Mycobacterium tuberculosis H37Rv by dilution method. The note with it: Mycobacterium tuberculosis, H37Rv; read-out: MIC.
Assay [7] concerns Mycobacterium tuberculosis. As to the kind of experiment: Antibacterial activity against Mycobacterium tuberculosis H160 by dilution method. The note with it: Mycobacterium tuberculosis, H160; read-out: MIC.
In assay [8] the test system is Mycobacterium tuberculosis. As to the kind of experiment: Antibacterial activity against Mycobacterium tuberculosis H190 by dilution method.
The subject of a further assay is Candida albicans. Briefly: Antifungal activity against Candida albicans by dilution method.
A further assay deals with Kluyveromyces marxianus. As to the kind of experiment: Antifungal activity against Candida pseudotropicalis by dilution method.

Consider `CC/C=C\C/C=C\C/C=C\CCCCCCCC(=O)OC(COC(=O)CCCCCCCCC)CO[C@@H]1O[C@H](CO)[C@H](O)[C@H](O)[C@H]1O` (stereo partly specified), for which the MIC in the assay on Staphylococcus aureus [1], against Staphylococcus aureus [2], against Enterococcus faecalis, in the assay with Bacillus subtilis, in the assay on Escherichia coli and in the assay with Pseudomonas aeruginosa was > 128 µg/mL throughout. The MIC was 64 µg/mL (≈ 95.7 µM) against Staphylococcus aureus [3]; > 128 µg/mL in the assay with Staphylococcus aureus [4]; 32 µg/mL (≈ 47.8 µM) in the assay with Staphylococcus aureus [5]; > 128 µg/mL in [6]; > 128 µg/mL in [7]; > 128 µg/mL in [8]. The MIC with Candida albicans and in the assay with Kluyveromyces marxianus was > 128 µg/mL in each case.
Take `CCCCC/C=C\C/C=C\CCCCCCCC(=O)OC(COC(=O)CCCCCCCCC)CO[C@@H]1O[C@H](CO)[C@@H](O)[C@H](O)[C@H]1O` (stereo partly specified): the MIC in the assay with Staphylococcus aureus [1] was > 128 µg/mL; against Staphylococcus aureus [2], 32 µg/mL (≈ 47.7 µM); with Enterococcus faecalis it was 64 µg/mL (≈ 95.4 µM); with Bacillus subtilis it was 128 µg/mL (≈ 191 µM); against Escherichia coli, > 128 µg/mL; in the assay on Pseudomonas aeruginosa, > 128 µg/mL. Moreover, the MIC was 32 µg/mL (≈ 47.7 µM) with Staphylococcus aureus [3]; > 128 µg/mL in the assay on Staphylococcus aureus [4]; 32 µg/mL (≈ 47.7 µM) in the assay with Staphylococcus aureus [5]; > 128 µg/mL in assay [6]; > 128 µg/mL in assay [7]; > 128 µg/mL in assay [8]. The MIC against Candida albicans and in the assay with Kluyveromyces marxianus was > 128 µg/mL throughout.
`CC/C=C\C/C=C\C/C=C\CCCCCCCC(=O)OCC(CO[C@@H]1O[C@H](CO)[C@@H](O)[C@H](O)[C@H]1O)OC(=O)CCCCCCC/C=C\C/C=C\C/C=C\CC` (stereo partly specified): the MIC against Staphylococcus aureus [1], in the assay on Staphylococcus aureus [2], against Enterococcus faecalis, in the assay with Bacillus subtilis, with Escherichia coli and with Pseudomonas aeruginosa was > 128 µg/mL in each case. Also, the MIC (against Staphylococcus aureus [3]; in the assay on Staphylococcus aureus [4]; with Staphylococcus aureus [5]; in assay [6]; in assay [7]; in [8]) was > 128 µg/mL in each case. For the same compound, the MIC in the assay with Candida albicans and in the assay on Kluyveromyces marxianus was > 128 µg/mL throughout.
Take `CCCCCCCCCC(=O)OCC(CO[C@@H]1O[C@H](CO)[C@H](O)[C@H](O)[C@H]1O)OC(=O)CCCCCCCCC` (stereo partly specified): the MIC in the assay with Staphylococcus aureus [1] was 32 µg/mL (≈ 56.9 µM); against Staphylococcus aureus [2] it was > 128 µg/mL; in the assay on Enterococcus faecalis it was > 128 µg/mL; in the assay on Bacillus subtilis, > 128 µg/mL; against Escherichia coli, > 128 µg/mL; against Pseudomonas aeruginosa, > 128 µg/mL. Also, the MIC against Staphylococcus aureus [3] was 32 µg/mL (≈ 56.9 µM); against Staphylococcus aureus [4] it was > 128 µg/mL; in the assay on Staphylococcus aureus [5], 128 µg/mL (≈ 227 µM); in [6], 128 µg/mL (≈ 227 µM); in assay [7] it was 64 µg/mL (≈ 114 µM); in [8], 64 µg/mL (≈ 114 µM). In addition, the MIC with Candida albicans and in the assay on Kluyveromyces marxianus was > 128 µg/mL in each case.
In the case of `CCCCCCCC/C=C\CCCCCCCC(=O)OC(COC(=O)CCCCCCC)CO[C@@H]1O[C@H](CO)[C@@H](O)[C@H](O)[C@H]1O` (stereo partly specified), the MIC against Staphylococcus aureus [1] was > 128 µg/mL; in the assay on Staphylococcus aureus [2], > 128 µg/mL; with Enterococcus faecalis it was > 128 µg/mL; in the assay on Bacillus subtilis it was 128 µg/mL (≈ 198 µM); in the assay on Escherichia coli, > 128 µg/mL; against Pseudomonas aeruginosa it was > 128 µg/mL. Also, the MIC is > 128 µg/mL in the assay with Staphylococcus aureus [3]; > 128 µg/mL in the assay on Staphylococcus aureus [4]; 64 µg/mL (≈ 99.2 µM) in the assay on Staphylococcus aureus [5]; 64 µg/mL (≈ 99.2 µM) in assay [6]; 64 µg/mL (≈ 99.2 µM) in assay [7]; 64 µg/mL (≈ 99.2 µM) in [8]. For the same compound, the MIC against Candida albicans and against Kluyveromyces marxianus was > 128 µg/mL each time.
With `CCCCCCCC/C=C\CCCCCCCC(=O)OC(COC(=O)CCCCCCCCC)CO[C@@H]1O[C@H](CO)[C@H](O)[C@H](O)[C@H]1O` (stereo partly specified), the MIC with Staphylococcus aureus [1] is 128 µg/mL (≈ 190 µM); against Staphylococcus aureus [2] it was > 128 µg/mL; against Enterococcus faecalis, > 128 µg/mL; in the assay on Bacillus subtilis, 32 µg/mL (≈ 47.6 µM); against Escherichia coli, > 128 µg/mL; with Pseudomonas aeruginosa, > 128 µg/mL. Besides, the MIC against Staphylococcus aureus [3] was 128 µg/mL (≈ 190 µM); in the assay on Staphylococcus aureus [4], > 128 µg/mL; in the assay with Staphylococcus aureus [5] it was > 128 µg/mL; in [6] it was > 128 µg/mL; in assay [7], > 128 µg/mL; in assay [8] it was > 128 µg/mL. In addition, the MIC against Candida albicans and in the assay on Kluyveromyces marxianus was > 128 µg/mL throughout.
As to `CCCCCCCC/C=C\CCCCCCCC(=O)OC(COC(=O)CCCCCCC)CO[C@@H]1O[C@H](CO)[C@H](O)[C@H](O)[C@H]1O` (stereo partly specified), the MIC against Staphylococcus aureus [1] was > 128 µg/mL; in the assay on Staphylococcus aureus [2], > 128 µg/mL; with Enterococcus faecalis it was > 128 µg/mL; in the assay with Bacillus subtilis, 128 µg/mL (≈ 198 µM); in the assay on Escherichia coli it was > 128 µg/mL; against Pseudomonas aeruginosa it was > 128 µg/mL. Further, the MIC in the assay with Staphylococcus aureus [3] is > 128 µg/mL; in the assay on Staphylococcus aureus [4], > 128 µg/mL; in the assay with Staphylococcus aureus [5] it was 64 µg/mL (≈ 99.2 µM); in [6] it was 128 µg/mL (≈ 198 µM); in [7], 64 µg/mL (≈ 99.2 µM); in assay [8], 64 µg/mL (≈ 99.2 µM). The MIC against Candida albicans and with Kluyveromyces marxianus was > 128 µg/mL in each case.
For `CCCCCCCC(=O)OCC(CO[C@@H]1O[C@H](CO)[C@H](O)[C@H](O)[C@H]1O)OC(=O)CCCCCCC` (stereo partly specified), the MIC in the assay with Staphylococcus aureus [1] is 32 µg/mL (≈ 63.2 µM); against Staphylococcus aureus [2], 32 µg/mL (≈ 63.2 µM); against Enterococcus faecalis, 32 µg/mL (≈ 63.2 µM); in the assay with Bacillus subtilis it was 32 µg/mL (≈ 63.2 µM); against Escherichia coli it was > 128 µg/mL; in the assay with Pseudomonas aeruginosa it was > 128 µg/mL. For the same compound, the MIC in the assay on Staphylococcus aureus [3] is 32 µg/mL (≈ 63.2 µM); in the assay with Staphylococcus aureus [4], > 128 µg/mL; with Staphylococcus aureus [5] it was 32 µg/mL (≈ 63.2 µM); in assay [6], 128 µg/mL (≈ 253 µM); in assay [7], 128 µg/mL (≈ 253 µM); in assay [8], 128 µg/mL (≈ 253 µM). Further, the MIC in the assay on Candida albicans and against Kluyveromyces marxianus was > 128 µg/mL throughout.
Regarding `CCCCC/C=C\C/C=C\CCCCCCCC(=O)OC(COC(=O)CCCCCCC)CO[C@@H]1O[C@H](CO)[C@@H](O)[C@H](O)[C@H]1O` (stereo partly specified), the MIC against Staphylococcus aureus [1] is > 128 µg/mL; against Staphylococcus aureus [2], > 128 µg/mL; in the assay with Enterococcus faecalis it was > 128 µg/mL; with Bacillus subtilis it was 128 µg/mL (≈ 199 µM); against Escherichia coli, > 128 µg/mL; in the assay with Pseudomonas aeruginosa, > 128 µg/mL. Besides, the MIC was > 128 µg/mL with Staphylococcus aureus [3]; > 128 µg/mL with Staphylococcus aureus [4]; 64 µg/mL (≈ 99.6 µM) with Staphylococcus aureus [5]; 64 µg/mL (≈ 99.6 µM) in assay [6]; 128 µg/mL (≈ 199 µM) in assay [7]; 64 µg/mL (≈ 99.6 µM) in assay [8]. Also, the MIC with Candida albicans and in the assay with Kluyveromyces marxianus was > 128 µg/mL each time.
